Reference: patent US20100226917A1, “METHODS FOR THE TREATMENT OF HEMATOLOGIC MALIGNANCIES” (AstraZeneca AB, priority 2007, published 2010)

Experiments:
[1] = test system: marrow mononuclear cells from patients with acute myelogenous leukemia; test: Colony formation of AML patient marrow mononuclear cells in methylcellulose; type: cell-based, human; details: 30-300 nM, 48-hour incubation, colonies scored after 14 days, 9 AML patient samples
Experimental: Marrow mononuclear cells from 9 patients with acute myelogenous leukemia were isolated by sedimentation on Ficoll-Hypaque density gradients (English et al. Single-Step Separation of Red Blood Cells. Granulocytes and Mononuclear Leukocytes on Discontinuous Density Gradients of Ficoll-Hypaque. Journal of Immunological Methods, 5: 249-252, 1974). After removal of an aliquot for staining to determine the percentage of blasts, replicate aliquots containing 1×10^6 cells in 1 ml Improved Dulbecco's Medium containing 20% heat-inactivated fetal bovine serum, 50 units/ml penicillin G, 50 μg/ml streptomycin and 2 mM glutamine (medium A) were treated with diluent (0.2% dimethyl sulfoxide), increasing concentrations of cytarabine alone (25-300 nM), increasing concentrations of a CHK-1 inhibitor (formula 1.1) (30-300 nM), or increasing concentrations of cytarabine in the presence of 100 nM of a CHK-1 inhibitor (Formula 1.1). […] Following a 14-day incubation at 37° C., colonies containing ≧50 cells were scored on an inverted microscope using established criteria (Eaves, C. and Lambie, K. Atlas of human hematopoietic colonies. Vancouver: StemCell Technologies Inc., 1995). […]

[2] = test system: JVM2 chronic B cell leukemia cell line; test: Cell Titer-Glo luminescent cell viability assay, JVM2 cell line; type: cell-based; details: Homo sapiens, JVM-2; JVM2, 48 hour treatment
Experimental: (§1) Chronic B cell leukemia cell lines (JVM2 and Mec1) (American Type Culture Collection (ATCC), Manassas, Va.) were plated in 96 well plates and 24 hours later were treated with increasing concentrations of a CHK1 inhibitor (Formula 1.1). Following 48 hour treatment cell viability was measured using Cell Titer-Glo® luminescent cell viability assay (Promega, Madison, Wis.).

[3] = test system: Mec1 chronic B cell leukemia cell line; test: Cell Titer-Glo luminescent cell viability assay, Mec1 cell line; type: cell-based; details: Homo sapiens; Mec1, 48 hour treatment
Experimental: as §1

[4] = test system: tumor cells isolated from CLL patients; test: Ex vivo cell viability (Cell Titer-Glo) of mononuclear cells isolated from CLL patient blood; type: cell-based, human; details: 48 hour treatment; for IC50: Homo sapiens
Experimental: Blood samples (10 mls) were collected from CLL patients and placed on ice. Whole blood was then diluted with phosphate buffered saline (PBS) (2-3 fold dilution) and carefully layered over 12 mls Ficoll-paque (GE Healthcare, Westborough, Mass.) in a 50 ml conical tube. Samples were then centrifuged at 3500 rpm for 35 minutes without break at room temperature. Plasma was removed and opaque interphase containing mononuclear cells was collected and placed into a clean conical centrifuge tube. Cells were then washed twice with PBS with 1% fetal bovine serum (FBS). Following final wash, cells were resuspended in 5˜10 mls RPMI 1640 (Invitrogen, Grand Island, N.Y.) plus 10% fetal calf serum (FCS) medium. Cells were then counted by Trypan blue exclusion method and viability and purity assessed.
Cells were then plated into 96 well plates (1×10^5 cells/well) and incubated overnight in a drug free medium. The next morning cells were treated with fludarabine (1, 3 and 10 μM), gemcitabine (0.1 and 1 μM), CHK1 inhibitor of Formula 1.1 (0.01, 0.1 and 0.5 μM) or the combination of fludarabine and CHK1 inhibitor or gemcitabine and CHK1 inhibitor. […] Following 48 hour treatment, cell viability was measured using Cell Titer-Glo® luminescent cell viability assay (Promega, Madison, Wis.).

CD20 antigen = target: T1, CD20 antigen (Homo sapiens, UniProt P11836); details: read-out: binding affinity; cited from earlier work
T1 sequence (P11836 1-297): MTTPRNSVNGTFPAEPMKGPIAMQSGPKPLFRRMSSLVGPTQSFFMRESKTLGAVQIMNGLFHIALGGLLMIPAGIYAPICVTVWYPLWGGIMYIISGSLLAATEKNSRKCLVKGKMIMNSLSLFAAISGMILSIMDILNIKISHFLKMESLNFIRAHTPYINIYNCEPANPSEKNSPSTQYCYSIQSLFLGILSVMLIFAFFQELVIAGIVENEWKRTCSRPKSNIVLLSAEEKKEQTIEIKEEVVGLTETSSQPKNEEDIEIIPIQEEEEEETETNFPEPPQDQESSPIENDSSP

[5] = relapsed patient who one week prior received rituximab treatment
[6] = newly diagnosed patient who had not received previous treatment

With `NC(=O)Nc1cc(-c2cccc(F)c2)sc1C(=O)N[C@H]1CCCNC1` [Formula 1.1, 5-(3-Fluoro-phenyl)-3-ureido-thiophene-2-carboxylic acid (S)-piperidin-3-ylamide] the “samples showing single agent sensitivity” value [1] was “Four out of nine samples”, the GI50 [2] was 13 nM and the GI50 [3] was 79 nM. For the same compound, the IC50 [4, 5] was 11 nM and the “response (cell viability)” value [4, 6] was “not”.
In the case of `Nc1nc(F)nc2c1ncn2[C@@H]1O[C@H](CO)[C@@H](O)[C@@H]1O` [fludarabine], the IC50 [4, 6] is reported as 560 nM and the IC50 [4, 5] is reported as 5100 nM.
In the case of `Nc1ccn([C@@H]2O[C@H](CO)[C@@H](O)C2(F)F)c(=O)n1` [gemcitabine], the “response (cell viability)” value [4, 6] is reported as “not” and the “response (cell viability)” value [4, 5] is reported as “not”.
For rituximab, the Kd (CD20 antigen) is listed as roughly 8 nM.
